Assays:
[1] = test system: patients with stable coronary artery disease; test: Adverse events and serious adverse events; type: in vivo, human
Procedure: All adverse events (AEs) were recorded along with investigator-reported seriousness, intensity, and relationship to study drug.

[2] = test system: patients with stable coronary artery disease; test: Applanation tonometry carotid-femoral pulse wave velocity (PWV); type: in vivo, human; settings: for PWV, absolute value: mean ± SD; for PWV, adjusted mean difference serelaxin versus placebo / PWV, change from baseline (adjusted mean): repeated measures ANCOVA
Procedure: Secondary endpoints included: the change from baseline in AIx and pulse wave velocity (PWV) assessed at the end of treatment, Day 30 and Day 180; aortic distensibility (assessed with CMR and PWV methods) at the end of treatment; pharmacokinetics and safety (adverse events, serious adverse events, and vital signs) of 48 h infusion of serelaxin 30 μg/kg/day. The changes in levels of circulating biomarkers of cardiorenal and vascular function during and after treatment with serelaxin were also assessed as part of the exploratory endpoints.
The applanation tonometry assessments were performed by blinded operators. Augmentation index [AIx = (augmentation pressure/pulse pressure) × 100], and carotid-femoral PWV were measured by applanation tonometry (Sphygmocor®, AtCor Medical, Australia) at a proximal (carotid artery) and a distal (femoral artery) site of the body, utilizing R-wave gated determination of the time interval between the two measurement points. An averaged carotid pressure waveform (from a 10 s recording) was converted into a corresponding central waveform using a validated transfer function (SphygmoCor®, AtCor, Australia).[27]^,[28]

Substance: Serelaxin
- Patients discontinuing the study due to hypotensive events ([1]; in vivo): No patient
- AEs considered causally related to serelaxin ([1]; investigator-reported relationship): None
- Angina pectoris (AE by preferred term) ([1]; safety set n=30): 1 (3) n (%)
- Angina unstable (AE by preferred term) ([1]; safety set n=30): 1 (3) n (%)
- Blood creatinine increased (AE by preferred term) ([1]; safety set n=30): 1 (3) n (%)
- Dizziness (AE by preferred term) ([1]; safety set n=30): 2 (7) n (%)
- Dyspnoea (AE by preferred term) ([1]; safety set n=30): 2 (7) n (%)
- Haematocrit decreased (AE by preferred term) ([1]; safety set n=30): 1 (3) n (%)
- Haemoglobin decreased (AE by preferred term) ([1]; safety set n=30): 2 (7) n (%)
- Headache (AE by preferred term) ([1]; safety set n=30): 2 (7) n (%)
- Musculoskeletal pain (AE by preferred term) ([1]; safety set n=30): 2 (7) n (%)
- Presyncope (AE by preferred term) ([1]; safety set n=30): 0 (0) n (%)
- Subjects with at least one AE ([1]; safety set n=30, 48 h IV infusion 30 µg/kg/day, follow-up to Day 180): 17 (57) n (%)
- Deaths ([1]; study period to Day 180): No deaths
- PWV, absolute value ([2]; 0 h (pre-dose baseline), n=22): 7.45 ± 2.05 (22) meters/second
- PWV, adjusted mean difference serelaxin versus placebo ([2]; 24 h): -0.157 meters/second
- PWV, adjusted mean difference serelaxin versus placebo ([2]; 24 h, listed as serelaxin): −0.16 meters/second
- PWV, change from baseline (adjusted mean) ([2]; 24 h, n=19): -0.54 meters/second
- PWV, absolute value ([2]; 24 h post-dose, n=19): 7.05 ± 1.88 (19) meters/second
- PWV, adjusted mean difference serelaxin versus placebo ([2]; 47 h): -0.34 meters/second
- PWV, change from baseline (adjusted mean) ([2]; 47 h, n=21): -0.26 meters/second
- PWV, absolute value ([2]; 47 h post-dose, n=22): 7.20 ± 1.92 (22) meters/second
- PWV, absolute value ([2]; Day 30, n=23): 7.99 ± 1.82 (23) meters/second
- PWV, adjusted mean difference serelaxin versus placebo ([2]; Day 30): -0.06 meters/second
- PWV, adjusted mean difference serelaxin versus placebo ([2]; Day 30, listed as serelaxin): −0.06 meters/second
- PWV, change from baseline (adjusted mean) ([2]; Day 30, n=20): 0.35 meters/second
- PWV, absolute value ([2]; Day 180, n=23): 8.34 ± 2.11 (23) meters/second
- PWV, adjusted mean difference serelaxin versus placebo ([2]; Day 180): 0.12 meters/second
- PWV, change from baseline (adjusted mean) ([2]; Day 180, n=20): 0.93 meters/second

Reference: paper PMC7797213, “Vascular effects of serelaxin in patients with stable coronary artery disease: a randomized placebo-controlled trial” (Cardiovascular Research, 2020)
